Patent US10336803B2, “Insulin secreting polypeptides” (Mayo Foundation for Medical Education and Research, priority 2013, dated 2019)
No end group written: not given here.

Assays:
normal dogs = assay: Chimeric polypeptide intravenous infusion in normal dogs: blood glucose, plasma insulin, plasma cGMP; assay type: in vivo, dog; conditions: normal dogs (n=2), intravenous infusion 10 or 100 pmol/kg/minute for 45 minutes; for plasma insulin: versus base line (FIG. 7); for plasma glucose: versus base line (FIG. 8); for plasma cGMP: versus base line (FIG. 9)
[1] = molecular target: T1, GC-A particulate guanylate cyclase receptors (Homo sapiens, UniProt P16066); assay: Cell cGMP assay in HEK293 cells stably transfected with GC-A; assay type: cell-based; conditions: 10^−10 M, 10^−8M, or 10^−6M polypeptide for 10 minutes (FIGS. 14, 15)
T1 construct: expressed in transfected cells; host or cells: HEK293
T1 sequence (P16066 33-1061): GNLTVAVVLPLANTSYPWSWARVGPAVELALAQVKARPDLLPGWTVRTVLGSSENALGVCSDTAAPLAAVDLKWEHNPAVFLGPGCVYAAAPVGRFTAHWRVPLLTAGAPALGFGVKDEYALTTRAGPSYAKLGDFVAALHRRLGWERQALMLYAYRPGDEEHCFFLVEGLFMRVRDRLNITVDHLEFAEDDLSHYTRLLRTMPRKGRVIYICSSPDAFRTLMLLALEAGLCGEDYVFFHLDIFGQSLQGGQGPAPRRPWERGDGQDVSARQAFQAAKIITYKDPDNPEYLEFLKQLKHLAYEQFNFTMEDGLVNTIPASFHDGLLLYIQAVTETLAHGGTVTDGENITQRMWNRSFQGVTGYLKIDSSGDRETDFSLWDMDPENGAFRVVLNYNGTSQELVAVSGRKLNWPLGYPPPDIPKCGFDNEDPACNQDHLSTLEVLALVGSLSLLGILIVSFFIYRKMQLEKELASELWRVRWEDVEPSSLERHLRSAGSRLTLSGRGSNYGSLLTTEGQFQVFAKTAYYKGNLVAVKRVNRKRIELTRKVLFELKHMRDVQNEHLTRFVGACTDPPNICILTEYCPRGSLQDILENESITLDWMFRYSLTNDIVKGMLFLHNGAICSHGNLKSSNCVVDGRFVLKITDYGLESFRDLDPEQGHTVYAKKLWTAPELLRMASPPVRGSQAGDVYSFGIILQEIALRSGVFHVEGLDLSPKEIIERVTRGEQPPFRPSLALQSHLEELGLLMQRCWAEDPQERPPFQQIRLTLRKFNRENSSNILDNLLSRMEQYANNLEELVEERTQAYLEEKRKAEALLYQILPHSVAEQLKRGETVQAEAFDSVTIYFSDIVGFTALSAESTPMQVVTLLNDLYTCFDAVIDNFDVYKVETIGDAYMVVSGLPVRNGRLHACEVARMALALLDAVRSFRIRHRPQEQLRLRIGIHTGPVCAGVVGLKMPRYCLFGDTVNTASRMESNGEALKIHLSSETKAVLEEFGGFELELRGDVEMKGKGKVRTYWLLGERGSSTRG

[2] = molecular target: T2, GC-B particulate guanylate cyclase receptors (Homo sapiens, UniProt P20594); assay: Cell cGMP assay in HEK293 cells stably transfected with GC-B; assay type: cell-based; conditions: 10^−10 M, 10^−8M, or 10^−6M polypeptide for 10 minutes (FIGS. 14, 15)
T2 construct: expressed in transfected cells; host or cells: HEK293
T2 sequence (P20594 23-1047): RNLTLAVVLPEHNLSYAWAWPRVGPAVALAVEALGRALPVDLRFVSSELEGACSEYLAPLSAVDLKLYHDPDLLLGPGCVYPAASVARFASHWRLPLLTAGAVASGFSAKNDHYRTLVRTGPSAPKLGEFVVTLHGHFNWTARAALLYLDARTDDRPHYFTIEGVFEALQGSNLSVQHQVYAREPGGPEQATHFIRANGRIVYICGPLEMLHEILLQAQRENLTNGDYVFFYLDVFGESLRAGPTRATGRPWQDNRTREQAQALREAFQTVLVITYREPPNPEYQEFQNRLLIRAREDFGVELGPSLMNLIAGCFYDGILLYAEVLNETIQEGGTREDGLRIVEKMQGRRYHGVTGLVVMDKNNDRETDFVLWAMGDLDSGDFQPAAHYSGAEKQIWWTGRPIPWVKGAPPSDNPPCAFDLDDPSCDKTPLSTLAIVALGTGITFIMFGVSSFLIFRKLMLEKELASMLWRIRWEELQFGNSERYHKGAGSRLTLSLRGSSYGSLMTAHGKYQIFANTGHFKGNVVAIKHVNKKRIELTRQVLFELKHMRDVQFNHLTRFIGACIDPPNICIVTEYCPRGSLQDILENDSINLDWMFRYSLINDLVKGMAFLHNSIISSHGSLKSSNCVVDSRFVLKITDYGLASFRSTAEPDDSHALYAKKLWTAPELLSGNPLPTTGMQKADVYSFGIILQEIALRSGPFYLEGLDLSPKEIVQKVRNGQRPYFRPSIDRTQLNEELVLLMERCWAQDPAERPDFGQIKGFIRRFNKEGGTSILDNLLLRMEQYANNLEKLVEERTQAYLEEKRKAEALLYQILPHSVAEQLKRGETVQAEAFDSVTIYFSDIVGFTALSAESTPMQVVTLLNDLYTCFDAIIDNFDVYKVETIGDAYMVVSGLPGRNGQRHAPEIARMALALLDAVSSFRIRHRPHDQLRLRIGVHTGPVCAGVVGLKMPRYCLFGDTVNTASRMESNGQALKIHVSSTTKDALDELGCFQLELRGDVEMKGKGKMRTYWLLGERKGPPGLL

diabetic rats = assay: Chronic CRRL-094 ISP-NP subcutaneous pump treatment of diabetic rats; assay type: in vivo, male Wistar rats; conditions: ALZET pumps subcutaneously 1 pmol/kg/minute
Text: Three groups of male Wistar rats were used: (1) normal non-diabetic control rats, (2) diabetic control rats, and (3) diabetic rats treated with CRRL-094 ISP-NP. Two months after induction of diabetes, ALZET pumps (obtained from DURECT Corporation, ALZET Osmotic Pumps, P.O. Box 530, Cupertino, Calif.; Model 1007D) filled with CRRL-094 ISP-NP in saline (dose=1 pmol/kg/minute) or saline as control were serially implanted subcutaneously every 14 days over the course of one month. After four weeks of treatment, blood glucose levels, plasma insulin levels, body weight, plasma and urine cGMP levels, and left ventricular hypertrophy were measured. Blood glucose levels and body weight also were measured after two weeks of treatment.

normal rats [3] = assay: CRRL-090 ISP intravenous infusion in normal rats: blood glucose and plasma insulin; assay type: in vivo, rat; conditions: 1 pmol/kg/minute for 210 minutes intravenous infusion
Protocol: CRRL-090 ISP was synthesized by direct protein synthesis and tested for biological activity in normal rats as follows. Two groups of normal rats were used. The first group included five normal rats, which were administered normal saline. The second group included seven normal rats, which were administered CRRL-090 (1 pmol/kg/minute for 210 minutes). Both administrations were via intravenous infusion.

[4] = system: diabetic rats (streptozotocin); assay: CRRL-090 ISP chronic subcutaneous pump treatment of streptozotocin diabetic rats; assay type: in vivo, male Wistar rats
Protocol: CRRL-090 ISP was synthesized by direct protein synthesis and tested for biological activity in diabetic rats as follows. Three groups of male Wistar rats (six rats per group) were used: normal control group, diabetic control group, and diabetic group treated with CRRL-090 ISP. One dose of streptozotocin was administered intraperitoneally to induce diabetes in the rats of the diabetic control group and diabetic group treated with CRRL-090 ISP. Two months after induction of diabetes, ALZET pumps (obtained from DURECT Corporation, ALZET Osmotic Pumps, P.O. Box 530, Cupertino, Calif.; Model 1007D) configured to release 0.1 μg/kg/minute of CRRL-090 ISP or saline as control were serially implanted subcutaneously every 14 days over the course of one month (2 pumps, one on day 0 and another on day 14). Cardiac function was assessed by echocardiography, neurohormones were measured by radioimmunoassays. Fibrosis was determined by picrosirius red staining.

normal rats [5] = assay: Chimeric polypeptide infusion in normal rats: blood glucose and plasma insulin; assay type: in vivo, rat; conditions: IV infusion 1 pmol/kg/minute for 210 minutes
[6] = after four weeks, compared to diabetic rats treated with saline (FIG. 19)

Question: “HGEGT-FTSDSEAFIWLGRRMDRIGLSKGCFGLKLDRIGSMSGLGCKVLRRH (HGEGTFTSDSEAFIWLGRRMDRIGLSKGCFGLKLDRIGSMSGLGCKVLRRH) [CRRL-094 ISP-NP]” was tested. Which plasma insulin (normal dogs) did it give?
Answer: Its plasma insulin is “increase in plasma insulin”.

Question: And the plasma glucose (normal dogs)?
Answer: The plasma glucose was “reduction in plasma glucose”.

Question: What about the “plasma cGMP” value (normal dogs) of the same substance?
Answer: Its value is “increase”.

Question: What about the “activation of GC-A receptors (cGMP levels)” value [1] of the same substance?
Answer: Its value is “activated both the GC-A and GC-B receptors”.

Question: What about the “activation of GC-B receptors (cGMP levels)” value [2] of the same substance?
Answer: The value was “activated both the GC-A and GC-B receptors”.

Question: What about the plasma insulin (diabetic rats; after four weeks, compared to diabetic rats treated with saline (FIG. 17)) of the same substance?
Answer: The plasma insulin was “increased plasma insulin”.

Question: What about the “plasma cGMP” value (diabetic rats; [6]) of the same substance?
Answer: Its value is “increased plasma and urine cGMP”.

Question: What about the “urine cGMP” value (diabetic rats; [6]) of the same substance?
Answer: Its value is “increased plasma and urine cGMP”.

Question: And the “left ventricular hypertrophy (Left Ventricular Mass, LVMd)” value (diabetic rats; after four weeks, compared to diabetic rats treated with saline (FIG. 20))?
Answer: Its value is “reduced left ventricular hypertrophy”.

Question: What about the blood glucose (diabetic rats; four weeks, compared to diabetic rats treated with saline (FIG. 16)) of the same substance?
Answer: The blood glucose was “reduced blood glucose”.

Question: What about the body weight (diabetic rats; four weeks, compared to diabetic rats treated with saline (FIG. 18)) of the same substance?
Answer: The body weight was “reduced body weight”.

Question: How did the blood glucose levels (normal rats [3]; compared to control rats that received saline (FIG. 1)) turn out when “HGEGTFTSDSEAFIWLGR-amide (HGEGTFTSDSEAFIWLGR-NH2) [CRRL-090 ISP]” was run?
Answer: The blood glucose levels was “lower blood glucose levels”.

Question: And the plasma insulin (normal rats [3]; compared to control rats that received saline (FIG. 2))?
Answer: Its plasma insulin is “increased plasma insulin”.

Question: And the blood glucose levels ([4]; ALZET pumps subcutaneously 0.1 μg/kg/minute for one month starting two months after streptozotocin, compared to diabetic controls (FIG. 3))?
Answer: Its blood glucose levels is “reduced blood glucose levels”.

Question: What about the plasma insulin levels ([4]; ALZET pumps subcutaneously 0.1 μg/kg/minute for one month, three months after streptozotocin, compared to diabetic controls (FIG. 4)) of the same substance?
Answer: Its plasma insulin levels is “increased plasma insulin levels”.

Question: What about the “glomerular filtration rate (GFR)” value ([4]; ALZET pumps subcutaneously 0.1 μg/kg/minute for one month, three months after streptozotocin, compared to diabetic controls (FIG. 5)) of the same substance?
Answer: Its value is “increased glomerular filtration rate”.

Question: What about the “left ventricular hypertrophy (LV/BW ratio)” value ([4]; ALZET pumps subcutaneously 0.1 μg/kg/minute for one month, three months after streptozotocin, compared to diabetic controls (FIG. 6)) of the same substance?
Answer: Its value is “less left ventricular hypertrophy”.

Question: How did the plasma insulin (normal dogs) turn out when “SPKMVQG-SGCFGRKMDRISSSSGLGCKVLRRHGEGTFTSDSEAFIWLGR [CRRL-092 ISP-NP]” was run?
Answer: The plasma insulin was “increase in plasma insulin”.

Question: And the plasma glucose (normal dogs)?
Answer: The plasma glucose was “reduction in plasma glucose”.

Question: And the “plasma cGMP” value (normal dogs)?
Answer: The value was “increase”.

Question: What about the plasma insulin (normal rats [5]; compared to placebo control rats (FIGS. 10, 12)) of the same substance?
Answer: The plasma insulin was “increased plasma insulin”.

Question: What about the blood glucose (normal rats [5]; compared to placebo control rats (FIGS. 11, 13)) of the same substance?
Answer: Its blood glucose is “lower blood glucose”.

Question: What about the “activation of GC-A receptors (cGMP levels)” value [1] of the same substance?
Answer: The value was “activated the GC-A receptors”.

Question: And the “activation of GC-B receptors (cGMP levels)” value [2]?
Answer: Its value is “but not the GC-B receptors”.
